Data from patent US20210251963A1, “UREA DERIVATIVES FOR USE IN THE TREATMENT OF SUBJECTS WITH ELEVATED EXPRESSION AND/OR ACTIVITY OF SRPK1” (Scandion Oncology A/S, priority 2018, published 2021).

Legend:
Experiment in all cases: Premier Screen kinase activity screening (33P ATP filter binding)
Assay type in all cases: biochemical
CAMKKb = molecular target: T1, CAMKKb (Homo sapiens, UniProt Q96RR4); conditions: 10 μM SCO-101, mean of assay duplicates, read-out: Kinase activity (percentage of DMSO control)
T1 construct: MRC in Dundee (screening service)
Description: (§1) The kinase activity screening was done at MRC in Dundee. The screen was a so-called “Premier Screen” with 140 kinases. More specific information can be found here: http://www.kinase-screen.mrc.ac.uk/services/premier-screen
(§2) The method is based on a radioactive filter binding assay using 33P ATP (Hastie, et al 2006. Nat Protoc. 2006; 1(2):968-71; Bain, et al 2007. Biochem J. 2007 Dec. 15; 408(3):297-315). This method is sensitive, accurate and provides a direct measure of kinase enzyme activity. A concentration of 10 μM SCO-101 was used.
(§3) In the table below, the data is portrayed as the mean percentage activity of assay duplicates and a standard deviation. These percentage activities were calculated in comparison to DMSO controls. 10 μM SCO-101 reduced the activity of SRPK1 to 6% of the DMSO control.

MKK6 = molecular target: T2, MKK6 (Homo sapiens, UniProt P52564); conditions: 10 μM SCO-101, mean of assay duplicates, read-out: Kinase activity (percentage of DMSO control)
T2 construct: purchased MRC Dundee, Premier Screen (contract screening service)
Description: as §1, §2, §3

PKBb = molecular target: T3, PKBb (Homo sapiens, UniProt P31751); conditions: 10 μM SCO-101, mean of assay duplicates, read-out: Kinase activity (percentage of DMSO control)
T3 construct: MRC in Dundee (screening service)
Description: as §1, §2, §3

Aurora B = molecular target: T4, Aurora B (Homo sapiens, UniProt Q96GD4); conditions: 10 μM SCO-101, mean of assay duplicates, read-out: Kinase activity (percentage of DMSO control)
T4 construct: purchased MRC in Dundee (Premier Screen service)
Description: as §1, §2, §3

MSK1 = molecular target: T5, MSK1 (Homo sapiens, UniProt O75582); conditions: 10 μM SCO-101, mean of assay duplicates, read-out: Kinase activity (percentage of DMSO control)
T5 construct: MRC Dundee (screening service)
Description: as §1, §2, §3

JNK1 = molecular target: T6, JNK1 (Homo sapiens, UniProt P45983); conditions: 10 μM SCO-101, mean of assay duplicates, read-out: Kinase activity (percentage of DMSO control)
T6 construct: purchased MRC Dundee, Premier Screen (contract screening service)
T6 sequence (P45983 whole entry, species assumed): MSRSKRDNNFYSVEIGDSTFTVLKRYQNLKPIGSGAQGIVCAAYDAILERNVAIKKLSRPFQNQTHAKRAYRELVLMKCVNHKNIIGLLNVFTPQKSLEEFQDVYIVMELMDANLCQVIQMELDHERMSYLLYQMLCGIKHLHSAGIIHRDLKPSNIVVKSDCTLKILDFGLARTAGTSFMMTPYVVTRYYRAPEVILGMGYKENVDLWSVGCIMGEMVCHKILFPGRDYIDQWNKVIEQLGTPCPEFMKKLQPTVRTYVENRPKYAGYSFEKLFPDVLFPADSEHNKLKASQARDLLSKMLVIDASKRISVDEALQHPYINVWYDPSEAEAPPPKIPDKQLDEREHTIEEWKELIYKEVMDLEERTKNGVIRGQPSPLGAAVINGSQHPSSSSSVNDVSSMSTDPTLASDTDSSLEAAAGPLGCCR
Description: as §1, §2, §3

NUAK1 = molecular target: T7, NUAK1 (Homo sapiens, UniProt O60285); conditions: 10 μM SCO-101, mean of assay duplicates, read-out: Kinase activity (percentage of DMSO control)
T7 construct: purchased MRC in Dundee (Premier Screen service)
Description: as §1, §2, §3

HIPK1 = molecular target: T8, HIPK1 (Homo sapiens, UniProt Q86Z02); conditions: 10 μM SCO-101, mean of assay duplicates, read-out: Kinase activity (percentage of DMSO control)
T8 construct: MRC Dundee (screening service)
T8 sequence (Q86Z02 whole entry, species assumed): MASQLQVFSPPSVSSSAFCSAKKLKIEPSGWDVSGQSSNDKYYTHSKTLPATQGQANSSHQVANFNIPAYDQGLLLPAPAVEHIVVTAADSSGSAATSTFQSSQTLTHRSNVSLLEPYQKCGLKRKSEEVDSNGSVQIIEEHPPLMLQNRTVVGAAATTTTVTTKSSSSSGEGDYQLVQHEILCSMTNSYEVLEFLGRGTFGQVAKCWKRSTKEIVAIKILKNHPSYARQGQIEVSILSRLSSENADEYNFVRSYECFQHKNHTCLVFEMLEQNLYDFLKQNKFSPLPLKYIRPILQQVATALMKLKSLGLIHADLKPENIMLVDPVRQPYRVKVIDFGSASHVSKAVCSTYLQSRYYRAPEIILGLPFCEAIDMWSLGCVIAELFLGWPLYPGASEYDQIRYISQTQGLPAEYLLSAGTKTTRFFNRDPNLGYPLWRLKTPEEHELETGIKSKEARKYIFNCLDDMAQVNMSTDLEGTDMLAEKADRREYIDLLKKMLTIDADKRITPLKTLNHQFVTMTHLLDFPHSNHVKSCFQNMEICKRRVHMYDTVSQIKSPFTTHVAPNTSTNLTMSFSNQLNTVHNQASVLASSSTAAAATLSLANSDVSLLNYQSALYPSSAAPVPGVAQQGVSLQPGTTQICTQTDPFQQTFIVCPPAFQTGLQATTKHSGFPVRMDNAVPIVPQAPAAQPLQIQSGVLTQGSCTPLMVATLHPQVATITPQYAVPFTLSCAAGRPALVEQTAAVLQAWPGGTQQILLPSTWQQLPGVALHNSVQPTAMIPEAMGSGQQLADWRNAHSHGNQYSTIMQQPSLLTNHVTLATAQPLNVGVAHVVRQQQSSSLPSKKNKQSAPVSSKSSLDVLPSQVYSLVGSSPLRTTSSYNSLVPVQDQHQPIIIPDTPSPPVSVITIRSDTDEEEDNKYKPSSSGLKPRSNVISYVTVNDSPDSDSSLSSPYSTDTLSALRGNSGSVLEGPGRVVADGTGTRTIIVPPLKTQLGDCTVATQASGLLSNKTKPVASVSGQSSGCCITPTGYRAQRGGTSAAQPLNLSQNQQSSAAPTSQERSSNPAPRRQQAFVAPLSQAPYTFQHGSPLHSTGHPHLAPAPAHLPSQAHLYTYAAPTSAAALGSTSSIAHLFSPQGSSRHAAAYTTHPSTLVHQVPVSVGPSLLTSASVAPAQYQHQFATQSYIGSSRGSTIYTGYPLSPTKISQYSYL
Description: as §1, §2, §3

PKCγ = molecular target: T9, PKCγ (Homo sapiens, UniProt P05129); conditions: 10 μM SCO-101, mean of assay duplicates, read-out: Kinase activity (percentage of DMSO control)
T9 construct: MRC Dundee (screening service)
Description: as §1, §2, §3

CAMK1 = molecular target: T10, CAMK1 (Homo sapiens, UniProt Q14012); conditions: 10 μM SCO-101, mean of assay duplicates, read-out: Kinase activity (percentage of DMSO control)
T10 construct: purchased MRC in Dundee (Premier Screen service)
Description: as §1, §2, §3

MST2 = molecular target: T11, MST2 (Homo sapiens, UniProt Q13188); conditions: 10 μM SCO-101, mean of assay duplicates, read-out: Kinase activity (percentage of DMSO control)
T11 construct: purchased MRC in Dundee (Premier Screen service)
Description: as §1, §2, §3

Lck = molecular target: T12, Lck (Homo sapiens, UniProt P06239); conditions: 10 μM SCO-101, mean of assay duplicates, read-out: Kinase activity (percentage of DMSO control)
T12 construct: purchased MRC Dundee, Premier Screen (contract screening service)
Description: as §1, §2, §3

CLK2 = molecular target: T13, CLK2 (Homo sapiens, UniProt P49760); conditions: 10 μM SCO-101, mean of assay duplicates, read-out: Kinase activity (percentage of DMSO control)
T13 construct: MRC in Dundee (screening service)
Description: as §1, §2, §3

BRSK2 = molecular target: T14, BRSK2 (Homo sapiens, UniProt Q8IWQ3); conditions: 10 μM SCO-101, mean of assay duplicates, read-out: Kinase activity (percentage of DMSO control)
T14 construct: MRC in Dundee (screening service)
Description: as §1, §2, §3

Src = molecular target: T15, Src (Homo sapiens, UniProt P12931); conditions: 10 μM SCO-101, mean of assay duplicates, read-out: Kinase activity (percentage of DMSO control)
T15 construct: purchased MRC Dundee, Premier Screen (contract screening service)
Description: as §1, §2, §3

IRAK4 = IRAK4 (Homo sapiens, UniProt Q9NWZ3); conditions: 10 μM SCO-101, mean of assay duplicates, read-out: Kinase activity (percentage of DMSO control)
Description: as §1, §2, §3

JNK3 = molecular target: T16, JNK3 (Homo sapiens, UniProt P53779); conditions: 10 μM SCO-101, mean of assay duplicates, read-out: Kinase activity (percentage of DMSO control)
T16 construct: purchased MRC Dundee, Premier Screen (contract screening service)
T16 sequence (P53779 whole entry, species assumed): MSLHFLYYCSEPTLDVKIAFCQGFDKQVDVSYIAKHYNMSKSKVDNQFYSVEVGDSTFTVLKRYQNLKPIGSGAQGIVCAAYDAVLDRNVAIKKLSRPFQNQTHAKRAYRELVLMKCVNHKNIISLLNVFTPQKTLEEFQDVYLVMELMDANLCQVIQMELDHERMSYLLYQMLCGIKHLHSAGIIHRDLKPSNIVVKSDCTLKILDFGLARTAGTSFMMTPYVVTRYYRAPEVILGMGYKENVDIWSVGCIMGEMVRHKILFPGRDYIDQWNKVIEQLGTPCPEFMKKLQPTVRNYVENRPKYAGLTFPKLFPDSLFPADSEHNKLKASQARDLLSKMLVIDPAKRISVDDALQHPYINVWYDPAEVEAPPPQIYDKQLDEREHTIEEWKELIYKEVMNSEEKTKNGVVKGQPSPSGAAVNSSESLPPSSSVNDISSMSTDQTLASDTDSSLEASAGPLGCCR
Description: as §1, §2, §3

EPH-A2 = molecular target: T17, EPH-A2 (Homo sapiens, UniProt P29317); conditions: 10 μM SCO-101, mean of assay duplicates, read-out: Kinase activity (percentage of DMSO control)
T17 construct: purchased MRC in Dundee (Premier Screen service)
Description: as §1, §2, §3

MEKK1 = molecular target: T18, MEKK1 (Homo sapiens, UniProt Q13233); conditions: 10 μM SCO-101, mean of assay duplicates, read-out: Kinase activity (percentage of DMSO control)
T18 construct: purchased MRC Dundee, Premier Screen (contract screening service)
Description: as §1, §2, §3

MNK1 = molecular target: T19, MNK1 (Homo sapiens, UniProt Q9BUB5); conditions: 10 μM SCO-101, mean of assay duplicates, read-out: Kinase activity (percentage of DMSO control)
T19 construct: MRC in Dundee (screening service)
T19 sequence (Q9BUB5 whole entry, species assumed): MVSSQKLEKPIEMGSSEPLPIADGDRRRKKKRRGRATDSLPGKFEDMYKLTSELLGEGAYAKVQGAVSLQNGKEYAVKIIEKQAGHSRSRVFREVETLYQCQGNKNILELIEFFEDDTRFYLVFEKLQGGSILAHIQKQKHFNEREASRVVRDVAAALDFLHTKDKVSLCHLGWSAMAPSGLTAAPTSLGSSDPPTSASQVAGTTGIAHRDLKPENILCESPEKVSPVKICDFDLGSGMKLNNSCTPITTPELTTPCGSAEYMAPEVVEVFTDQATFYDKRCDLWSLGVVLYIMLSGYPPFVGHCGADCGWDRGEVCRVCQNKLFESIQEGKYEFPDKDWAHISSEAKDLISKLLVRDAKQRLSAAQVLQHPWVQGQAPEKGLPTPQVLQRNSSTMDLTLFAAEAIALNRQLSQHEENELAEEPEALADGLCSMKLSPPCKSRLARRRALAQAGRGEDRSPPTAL
Description: as §1, §2, §3

CSK = molecular target: T20, CSK (Homo sapiens, UniProt P41240); conditions: 10 μM SCO-101, mean of assay duplicates, read-out: Kinase activity (percentage of DMSO control)
T20 construct: purchased MRC Dundee, Premier Screen (contract screening service)
Description: as §1, §2, §3

SIK2 = molecular target: T21, SIK2 (Homo sapiens, UniProt Q9H0K1); conditions: 10 μM SCO-101, mean of assay duplicates, read-out: Kinase activity (percentage of DMSO control)
T21 construct: MRC in Dundee (screening service)
Description: as §1, §2, §3

DYRK1A = molecular target: T22, DYRK1A (Homo sapiens, UniProt Q13627); conditions: 10 μM SCO-101, mean of assay duplicates, read-out: Kinase activity (percentage of DMSO control)
T22 construct: purchased MRC Dundee, Premier Screen (contract screening service)
Description: as §1, §2, §3

SIK3 = molecular target: T23, SIK3 (Homo sapiens, UniProt Q9Y2K2); conditions: 10 μM SCO-101, mean of assay duplicates, read-out: Kinase activity (percentage of DMSO control)
T23 construct: purchased MRC in Dundee (Premier Screen service)
T23 sequence (Q9Y2K2 whole entry, species assumed): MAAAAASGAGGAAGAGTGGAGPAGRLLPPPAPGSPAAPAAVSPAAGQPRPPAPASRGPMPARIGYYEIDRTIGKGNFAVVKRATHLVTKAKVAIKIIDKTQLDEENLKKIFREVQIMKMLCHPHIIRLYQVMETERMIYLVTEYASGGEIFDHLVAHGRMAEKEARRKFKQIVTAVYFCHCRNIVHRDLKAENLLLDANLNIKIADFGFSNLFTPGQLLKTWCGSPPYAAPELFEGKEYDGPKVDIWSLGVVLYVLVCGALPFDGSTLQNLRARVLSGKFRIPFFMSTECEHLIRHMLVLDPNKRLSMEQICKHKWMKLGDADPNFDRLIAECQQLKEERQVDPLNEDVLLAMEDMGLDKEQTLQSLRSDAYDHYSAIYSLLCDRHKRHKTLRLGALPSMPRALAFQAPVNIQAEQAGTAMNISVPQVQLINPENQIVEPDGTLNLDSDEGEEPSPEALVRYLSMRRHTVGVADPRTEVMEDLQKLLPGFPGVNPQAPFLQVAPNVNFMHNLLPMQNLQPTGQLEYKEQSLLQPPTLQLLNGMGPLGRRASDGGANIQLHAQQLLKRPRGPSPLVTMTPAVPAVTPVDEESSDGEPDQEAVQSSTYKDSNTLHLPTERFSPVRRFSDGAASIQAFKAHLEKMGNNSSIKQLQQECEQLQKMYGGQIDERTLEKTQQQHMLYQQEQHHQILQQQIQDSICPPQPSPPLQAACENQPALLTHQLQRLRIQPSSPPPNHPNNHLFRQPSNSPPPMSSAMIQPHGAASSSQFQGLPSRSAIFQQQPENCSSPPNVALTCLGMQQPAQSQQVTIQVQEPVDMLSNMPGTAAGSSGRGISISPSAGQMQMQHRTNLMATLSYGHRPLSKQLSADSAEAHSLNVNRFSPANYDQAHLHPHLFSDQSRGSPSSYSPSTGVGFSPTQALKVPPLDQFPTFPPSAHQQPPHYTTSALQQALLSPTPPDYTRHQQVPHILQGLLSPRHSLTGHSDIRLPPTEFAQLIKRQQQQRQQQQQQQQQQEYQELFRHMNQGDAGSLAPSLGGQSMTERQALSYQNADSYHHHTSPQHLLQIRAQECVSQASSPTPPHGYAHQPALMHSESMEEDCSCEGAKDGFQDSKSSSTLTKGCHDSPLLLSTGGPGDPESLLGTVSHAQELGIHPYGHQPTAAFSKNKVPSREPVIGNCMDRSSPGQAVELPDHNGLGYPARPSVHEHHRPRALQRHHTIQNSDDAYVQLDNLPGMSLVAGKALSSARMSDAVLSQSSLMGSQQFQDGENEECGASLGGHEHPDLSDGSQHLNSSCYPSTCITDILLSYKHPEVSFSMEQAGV
Description: as §1, §2, §3

DDR2 = molecular target: T24, DDR2 (Homo sapiens, UniProt Q16832); conditions: 10 μM SCO-101, mean of assay duplicates, read-out: Kinase activity (percentage of DMSO control)
T24 construct: purchased MRC in Dundee (Premier Screen service)
Description: as §1, §2, §3

TTBK2 = molecular target: T25, TTBK2 (Homo sapiens, UniProt Q6IQ55); conditions: 10 μM SCO-101, mean of assay duplicates, read-out: Kinase activity (percentage of DMSO control)
T25 construct: purchased MRC Dundee, Premier Screen (contract screening service)
Description: as §1, §2, §3

DAPK1 = DAPK1 (Homo sapiens, UniProt P53355); conditions: 10 μM SCO-101, mean of assay duplicates, read-out: Kinase activity (percentage of DMSO control)
Description: as §1, §2, §3

PHK = conditions: 10 μM SCO-101, mean of assay duplicates
Description: as §1, §2, §3

TGFBR1 = molecular target: T26, TGFBR1 (Homo sapiens, UniProt P36897); conditions: 10 μM SCO-101, mean of assay duplicates, read-out: Kinase activity (percentage of DMSO control)
T26 construct: purchased MRC Dundee, Premier Screen (contract screening service)
T26 sequence (P36897 34-503, species assumed): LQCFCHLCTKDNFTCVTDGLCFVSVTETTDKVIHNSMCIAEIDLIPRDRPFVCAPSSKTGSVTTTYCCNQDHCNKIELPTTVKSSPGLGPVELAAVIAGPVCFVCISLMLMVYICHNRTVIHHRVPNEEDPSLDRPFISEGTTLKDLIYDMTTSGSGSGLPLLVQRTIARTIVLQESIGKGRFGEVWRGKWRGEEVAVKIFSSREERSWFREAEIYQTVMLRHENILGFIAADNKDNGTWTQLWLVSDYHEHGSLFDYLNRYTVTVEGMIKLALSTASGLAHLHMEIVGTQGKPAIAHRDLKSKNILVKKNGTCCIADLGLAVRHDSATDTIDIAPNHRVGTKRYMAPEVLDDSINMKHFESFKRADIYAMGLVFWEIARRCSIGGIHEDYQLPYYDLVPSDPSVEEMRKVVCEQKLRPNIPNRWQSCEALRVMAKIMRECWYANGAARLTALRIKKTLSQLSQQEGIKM
Description: as §1, §2, §3

ERK8 = molecular target: T27, ERK8 (Homo sapiens, UniProt Q8TD08); conditions: 10 μM SCO-101, mean of assay duplicates, read-out: Kinase activity (percentage of DMSO control)
T27 construct: MRC in Dundee (screening service)
Description: as §1, §2, §3

WNK1 = molecular target: T28, WNK1 (Homo sapiens, UniProt Q9H4A3); conditions: 10 μM SCO-101, mean of assay duplicates, read-out: Kinase activity (percentage of DMSO control)
T28 construct: purchased MRC Dundee, Premier Screen (contract screening service)
Description: as §1, §2, §3

PAK6 = PAK6 (Homo sapiens, UniProt Q9NQU5); conditions: 10 μM SCO-101, mean of assay duplicates, read-out: Kinase activity (percentage of DMSO control)
Chain of PAK6 (Q9NQU5 whole entry, species assumed): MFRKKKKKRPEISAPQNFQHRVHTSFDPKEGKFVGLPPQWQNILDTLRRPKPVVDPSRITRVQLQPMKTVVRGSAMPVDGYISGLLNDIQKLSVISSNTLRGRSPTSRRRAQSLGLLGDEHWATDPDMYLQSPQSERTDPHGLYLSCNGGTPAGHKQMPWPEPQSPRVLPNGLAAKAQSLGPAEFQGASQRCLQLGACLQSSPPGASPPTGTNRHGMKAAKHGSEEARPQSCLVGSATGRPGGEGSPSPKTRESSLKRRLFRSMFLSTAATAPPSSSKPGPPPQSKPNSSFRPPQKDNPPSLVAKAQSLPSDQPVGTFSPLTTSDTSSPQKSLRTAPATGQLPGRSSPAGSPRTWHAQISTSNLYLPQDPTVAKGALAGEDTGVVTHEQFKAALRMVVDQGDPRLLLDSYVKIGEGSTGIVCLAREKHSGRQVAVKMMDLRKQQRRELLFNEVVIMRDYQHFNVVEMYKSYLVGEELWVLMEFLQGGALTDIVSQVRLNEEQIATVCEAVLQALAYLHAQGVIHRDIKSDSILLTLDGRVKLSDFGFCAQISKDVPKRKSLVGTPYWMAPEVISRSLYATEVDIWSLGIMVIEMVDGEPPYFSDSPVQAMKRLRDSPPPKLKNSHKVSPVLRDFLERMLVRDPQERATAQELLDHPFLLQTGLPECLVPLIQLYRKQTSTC
Description: as §1, §2, §3

MLK3 = molecular target: T29, MLK3 (Homo sapiens, UniProt Q16584); conditions: 10 μM SCO-101, mean of assay duplicates, read-out: Kinase activity (percentage of DMSO control)
T29 construct: purchased MRC Dundee, Premier Screen (contract screening service)
Description: as §1, §2, §3

PDK1 = molecular target: T30, PDK1 (Homo sapiens, UniProt O15530); conditions: 10 μM SCO-101, mean of assay duplicates, read-out: Kinase activity (percentage of DMSO control)
T30 construct: purchased MRC Dundee, Premier Screen (contract screening service)
Description: as §1, §2, §3

MAPKAP-K3 = molecular target: T31, MAPKAP-K3 (Homo sapiens, UniProt Q16644); conditions: 10 μM SCO-101, mean of assay duplicates, read-out: Kinase activity (percentage of DMSO control)
T31 construct: MRC in Dundee (screening service)
Description: as §1, §2, §3

DYRK2 = molecular target: T32, DYRK2 (Homo sapiens, UniProt Q92630); conditions: 10 μM SCO-101, mean of assay duplicates, read-out: Kinase activity (percentage of DMSO control)
T32 construct: purchased MRC in Dundee (Premier Screen service)
Description: as §1, §2, §3

O=C(Nc1cc(C(F)(F)F)cc(C(F)(F)F)c1)Nc1ccc(Br)cc1-c1nnn[nH]1 [SCO-101]
remaining activity at 10 µM (CAMKKb): 94%
remaining activity at 10 µM (MKK6): 108%
remaining activity at 10 µM (PKBb): 84%
remaining activity at 10 µM (Aurora B): 61%
remaining activity at 10 µM (MSK1): 101%
remaining activity at 10 µM (JNK1): 105%
remaining activity at 10 µM (NUAK1): 49%
remaining activity at 10 µM (HIPK1): 98%
remaining activity at 10 µM (PKCγ): 97%
remaining activity at 10 µM (CAMK1): 57%
remaining activity at 10 µM (MST2): 146%
remaining activity at 10 µM (Lck): 103%
remaining activity at 10 µM (CLK2): 86%
remaining activity at 10 µM (BRSK2): 81%
remaining activity at 10 µM (Src): 105%
remaining activity at 10 µM (IRAK4): 112%
remaining activity at 10 µM (JNK3): 112%
remaining activity at 10 µM (EPH-A2): 60%
remaining activity at 10 µM (MEKK1): 105%
remaining activity at 10 µM (MNK1): 91%
remaining activity at 10 µM (CSK): 106%
remaining activity at 10 µM (SIK2): 81%
remaining activity at 10 µM (DYRK1A): 112%
remaining activity at 10 µM (SIK3): 39%
remaining activity at 10 µM (DDR2): 68%
remaining activity at 10 µM (TTBK2): 109%
remaining activity at 10 µM (DAPK1): 112%
Kinase activity (percentage of DMSO control) (PHK): 88 percentage of DMSO control
remaining activity at 10 µM (TGFBR1): 111%
remaining activity at 10 µM (ERK8): 93%
remaining activity at 10 µM (WNK1): 105%
remaining activity at 10 µM (PAK6): 123%
remaining activity at 10 µM (MLK3): 110%
remaining activity at 10 µM (PDK1): 108%
remaining activity at 10 µM (MAPKAP-K3): 85%
remaining activity at 10 µM (DYRK2): 78%
